B1: wild type AsnO (Streptomyces coelicolor A3(2)) (protein)
chain: MAANAAGPASRYDVTLDQSDAELVEEIAWKLATQATGRPDDAEWVEAARNAWHAWPATLRRDLAGFRRDSGPDGAIVLRGLPVDSMGLPPTPRVNGSVQREASLGAAVLLMTACGLGDPGAFLPEKNGALVQDVVPVPGMEEFQGNAGSTLLTFHNENAFHEHRPDFVMLLCLRADPTGRAGLRTACVRRVLPLLSDSTVDALWAPEFRTAPPPSFQLSGPEEAPAPVLLGDRSDPDLRVDLAATEPVTERAAEALRELQAHFDATAVTHRLLPGELAIVDNRVTVHGRTEFTPRYDGTDRWLQRTFVLTDLRRSRAMRPADGYVLGAAPQPA

Key:
glutamate transporters = conditions: literature statement; cited from earlier work
AsnO D241N [1] = target: T1, AsnO D241N (Streptomyces coelicolor, UniProt Q9Z4Z5, D241N/M1S); assay: Substrate specificity of the mutated protein AsnO D241N, HPLC/MS; format: biochemical; parameters: made in house; host or cells: E. coli BL21 (DE3), pQTEV vector; conditions: amino acid 1.5 mM, 16 h at 16° C., (NH4)2Fe(SO4)2 1 mM, α-ketoglutarate 4 mM, catalase, HEPES pH 7.5
Description: The specificity of AsnO D241N for the conversion of L-Asp in L-threo-3-hydroxyaspartate is examined by incubating this mutated protein during 16 h at 16° C. with the amino acids (1.5 mM) listed in Table 1, the cofactor (NH4)2Fe(SO4)2 (1 mM), the cosubstrate α-ketoglutarate (4 mM) and 20 μg catalase in […] of a 50 mM HEPES buffer (pH 7.5). The catalase is added in order to quench reactive oxygen species and to prevent hereby the autoxidation of the enzyme. Controls are carried out in the absence of AsnO D241N.
The reaction is stopped by the addition of 50-200 μL of a 4% solution (V/V) of nonafluoropentane acid and subsequently the hydroxylation of the amino acid substrate to the respectively corresponding hydroxy amino acid is examined by means of reversed phase HPLC/MS. Column: Hypercarb (Thermo Electron Corporation, pore diameters of 250 Å, particle size of 5 μM, 100% carbon). Mobile phases: A=20 mM aqueous nonafluoropentane acid, B=acetonitrile. Gradient: 0-10% B in 12 min, flow rate 0.2 mL/min at 17.5° C.
The reaction product of the incubation of the respective amino acid with AsnO D241N is carried out by means of highest resolution MS with an API Qstar Pulsar I (Applied Biosystems).

wild type AsnO = assay: Kinetic parameters of the wild type AsnO for L-Asn (comparison); format: biochemical, Streptomyces coelicolor; conditions: wild type AsnO with L-Asn versus AsnO D241N with L-Asp
AsnO D241N [2] = target: T1, AsnO D241N; conditions: AsnO D241N 40 μM, substrate L-Asp 50 μM to 2 mM
Description: For the evaluation of the kinetic parameters at different concentrations of the substrate L-Asp (50 μM to 2 mM), the latter was incubated as described under practical embodiment 3 with AsnO D241N (40 μM), 1.0 mM (NH4)2Fe(SO4)2 as source of the iron cofactor and 1.0 mM α-ketoglutarate (cosubstrate) and the enzyme assay was stopped at different points in time by adding nonafluoropentane acid.
The kinetic parameters of AsnO D241N are subsequently determined by means of a Lineweaver-Burk equation (FIG. 4b).

AsnO D241N [3] = target: T1, AsnO D241N; assay: Activity of the AsnO D241N mutant: conversion of L-Asp, HPLC MS; format: biochemical; parameters: made in house; host or cells: E. coli BL21 (DE3), pQTEV vector; conditions: AsnO D241N 40 μM, 1.5 mM L-Asp, 1.0 mM (NH4)2Fe(SO4)2, 1.0 mM α-ketoglutarate, 16 h, 16° C.
Description: In order to evaluate the activity of the AsnO D241N mutant, the purified enzyme
The reaction is monitored by means of HPLC MS, by scanning the masses for L-Asp ([M+H]^+=[…]) and its hydroxylated form ([M+H]^+=150.04 Da). […] (FIG. 3a). In the control reaction, in which no enzyme is added, only L-Asp can be detected (FIG. 3b). Commercially available L-Asp (Bachem) as well as L-threo-3-hydroxyaspartate (Tocris Bioscience) are used as standards for the comparison of the retention times with HPLC.
Column: Hypercarb (Thermo Electron Corporation, pore diameters of 250 Å, particle size of 5 μM, 100% carbon). Mobile phases: A=20 mM aqueous nonafluoropentane acid, B=acetonitrile Gradient: 0-10% B in 12 min, flow rate 0.2 mL 1 min at 17.5° C. • FIG. 3a: negative control, no addition of enzyme (=AsnO D241N) • Only L-Asp is detected. • Retention time: 3.72 min; • Mber=134.045, Mgef=134.048 • FIG. 3b: incubation of L-Asp with AsnO D241N • After 16 h of incubation at 16° C. only • L-threo-3-hydroxyaspartate is detected. • Retention time 3.39 min; • Mber=150.040, Mgef=150.042

[4] = substrate: NC(=O)C[C@H](N)C(=O)O; assay: Kinetic parameters of the wild type AsnO for L-Asn (comparison); format: biochemical, Streptomyces coelicolor; conditions: other: wild type AsnO, substrate L-Asn

T1 sequence (Q9Z4Z5 other isoform, or with tags, fused parts or gaps D241N): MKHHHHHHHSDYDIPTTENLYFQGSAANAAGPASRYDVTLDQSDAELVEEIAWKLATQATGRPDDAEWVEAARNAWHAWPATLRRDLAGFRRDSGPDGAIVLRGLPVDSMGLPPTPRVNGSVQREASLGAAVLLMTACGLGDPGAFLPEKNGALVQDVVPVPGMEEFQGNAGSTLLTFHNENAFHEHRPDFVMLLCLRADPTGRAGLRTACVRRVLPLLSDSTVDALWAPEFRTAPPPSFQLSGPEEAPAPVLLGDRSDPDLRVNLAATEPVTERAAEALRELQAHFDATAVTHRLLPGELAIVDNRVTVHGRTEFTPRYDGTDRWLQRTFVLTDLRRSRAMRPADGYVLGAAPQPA

Molecule | hydroxylation (AsnO D241N [1]) | other results
N[C@H](C(=O)O)[C@H](O)C(=O)O [L-threo-hydroxaspartate, L-threo-hydroxyaspartate] | – | inhibition of the function of the glutamate transporters (glutamate transporters): inhibits the function of the glutamate transporters
CC[C@H](C)[C@H](N)C(=O)O [L-Ile] | no | –
NC(=O)CC[C@H](N)C(=O)O [L-Gln] | no | –
N[C@@H](Cc1c[nH]c2ccccc12)C(=O)O [L-Trp] | no | –
N[C@H](CC(=O)O)C(=O)O [D-Asp] | no | –
N[C@@H](Cc1ccccc1)C(=O)O [L-Phe] | no | –
N[C@@H](CCC(=O)O)C(=O)O [L-Glu, L-glutamate] | no | –
NC(C(=O)O)C(OCc1ccccc1)C(=O)O [L-TBOA] | – | inhibition of the function of the glutamate transporters (glutamate transporters): also comprises this inhibitor effect
NC(=O)C[C@H](N)C(=O)O [L-Asn, L-asparagine] | no | kcat of wild type AsnO relative to AsnO D241N (wild type AsnO): 300 times
CC(C)[C@H](N)C(=O)O [L-Val] | no | –
N[C@@H](CC(=O)O)C(=O)O [L-Asp, L-aspartate] | yes | Km (AsnO D241N [2]): 457 ± 31 µM; kcat (AsnO D241N [2]): 0.0167 ± 0.0017 s⁻¹; conversion of L-aspartate to L-threo-3-hydroxyaspartate (AsnO D241N [3]): Quantitative conversion; conversion of L-aspartate to L-threo-3-hydroxyaspartate (AsnO D241N [3]; listed as L-aspartate): quantitative conversion
B1 | – | Km [4]: 478 ± 67 µM; kcat [4]: 4.97 ± 0.317 s⁻¹

— patent US20100184189A1, “PROTEIN FOR THE CHEMOENZYMATIC PRODUCTION OF L-THREO-HYDROXYASPARTATE” (priority 2007, published 2010)
